Measured values published in patent US12168781B2, “Production method for T cells or NK cells, medium for culturing T cells or NK cells, method for culturing T cells or NK cells, method for maintaining undifferentiated state of undifferentiated T cells, and growth-accelerating agent for T cells or NK cells” (KIRIN HOLDINGS KABUSHIKI KAISHA, priority 2018, dated 2024).

How the values were obtained:
Type in all cases: cell-based, human
T-iPS-T cells = assay: Feeder-free culture of T-iPS-T cells, FACS count of PI-negative cells and CD45RA(+)CCR7(+) cells; conditions: 6 days; for Number of CD45RA+CCR7+ cells: DMSO 3891 ± 3170; for Cell number: DMSO 16096 ± 10785
Protocol: After washing, the cells were resuspended in the staining solution containing PI. Half the amount was analyzed using a BD LSR Fortessa cytometer (BD Bioscience) equipped with HTS, and all cells were recorded.
The concentration dependence of the bisbenzylisoquinoline alkaloid represented by the formula (X-1) or the formula (X-2) in feeder-free proliferation of T-iPS-T cells was examined. T-iPS-T cells were cultured using alpha-MEM medium supplemented with 15% FBS, 1% PSG, PAA (50 μg/mL), ITS-G, IL-7 (5 ng/mL), IL-12 (50 ng/mL), IL-15 (5 ng/mL), IL-18 (50 ng/mL), IL-21 (20 ng/mL), and z-VAD-fmk (10 μM).
The effect on culturing of T-iPS-T cells was evaluated by comparing a known compound that contributes to the proliferation of memory T cells with berbamine. […] DMSO (0.1%) that is a solvent for the compound was used as a control.
The number of events of PI-negative cells and the number of events of CD45RA(+)CCR7(+) cells in the PI-negative cells, which were analyzed by FlowJo 9, were used as data. Note that in a statistical analysis, a Student's t-test was used (*: p<0.05).
The effect of the combined use of berbamine with a MAPK cascade inhibitor on the proliferation of memory T cells was examined. […] The final concentration of each compound was set to 1 μM. DMSO (0.1%) that is a solvent for the compound was used as a control.
The number of events (#Cells) of CD45RA(+)CCR7(+) cells in the PI-negative cell population analyzed by FlowJo 9 was plotted and graphed. Note that in a statistical analysis, a Student's t-test was used (*: p<0.05, **P<0.01, ***P<0.001, ****P<0.0001).

stem cell memory T cells = assay: Proliferation of sorted stem cell memory T cells, trypan blue count; conditions: 1 μM, stem cell memory T cells, 6, 9, 12 and 14 days, FIG. 18C
Excerpt: NPL 4 reports that hierarchy exists in T cells (FIG. 18A). In this Example, a fraction in which berbamine acts in T cells was verified. As a method therefor, PBMCs (CTL, Inc.) derived from a healthy subject was washed with a staining solution (PBS containing 2% FBS), and then stained with CCR7-APC (BioLegend, 353214), CD45RA-BV510 (BioLegend, 304142), CD45RO-APC-Cy7 (BioLegend, 307228), CD95-PC-Cy7 (BioLegend, 305622), CD8β-PE (Beckman, IM2217U), and CD4-BV421 (BioLegend, 317434).
After washing, the cells were resuspended in the staining solution containing PI, and by using BD AriaII Cell Sorter (BD Bioscience), in the CD8β(+) cells, CCR7(+)CD45RA(+)CD95(−)CD45RO(−) was sorted as naive T cells, CCR7(+)CD45RA(+)CD95(+)CD45RO(+) was sorted as stem cell memory T cells, CCR7(+)CD45RA(−)CD45RO(+) was sorted as central memory T cells, and CCR7(−) CD45RA(−)CD45RO(+) was sorted as effector memory T cells.
The respective cells (about 3,000 cells/well) were seeded, and berbamine (BBM) at 1 μM or MilliQ water that is a solvent for the compound as a control was added thereto, and the cells were stimulated with CD3/CD28 Dynabeads (about 9,000 beads/well). The cells were cultured using the same culture medium as in Example 6.
After 6, 9, 12, and 14 days of culturing, the number of viable cells was counted by a trypan blue method. In a statistical analysis, a Student's t-test was used (*: p<0.05).

[1] = test system: regulatory T cells (Treg); assay: Proliferation of regulatory T cells (number of FoxP3-positive cells); conditions: 1 μM, 6 days, CD3 T cells of 3 healthy donors, FIG. 17
Protocol: The usefulness of berbamine (BBM) in the proliferation of regulatory T cells (Treg) was verified. As a method therefor, CD3 T cells were purified from PBMCs (CTL, Inc.) derived from 3 healthy donor subjects in the same manner as in additional Example 6 and cultured for 6 days. After culturing for 6 days, the number of viable cells was counted by a trypan blue method and the ratio of CD25(+)FoxP3(+) cells was analyzed by FACS.
In the FACS, the cultured cells were sorted into facs tubes, washed with a staining solution (PBS containing 2% FBS), and then stained with CD3-APC (BioLegend, 300421), CD4-BV510 (BioLegend, 317444), CD8-Pacific Blue (BD 558207), and CD25-FITC (BioLegend, 302604).
After the cells were further washed, intracellular staining was performed using FoxP3/Transcription Factor Staining Buffer Set (eBioscience, 00-5523) and FoxP3-PE (eBioscience, 12-4776-41), and measurement was performed using a BD LSRFortessa cytometer (BD Bioscience).
The value obtained by multiplying the positive rate of FoxP3(+) cells in the CD4(+) cells analyzed by FlowJo 9 by the number of viable cells was defined as the number of FoxP3-positive cells.

Compound: COc1cc2c3cc1Oc1c(OC)c(OC)cc4c1[C@@H](Cc1ccc(O)c(c1)Oc1ccc(cc1)C[C@@H]3N(C)CC2)N(C)CC4 [berbamine]
- Number of CD45RA+CCR7+ cells (T-iPS-T cells; 1 nM): 5761 ± 4045
- Cell number (T-iPS-T cells; 1 nM): 18397 ± 10723
- Number of CD45RA+CCR7+ cells (T-iPS-T cells; 3 nM): 5667 ± 4255
- Cell number (T-iPS-T cells; 3 nM): 19540 ± 11587
- Number of CD45RA+CCR7+ cells (T-iPS-T cells; 10 nM): 6186 ± 3617
- Cell number (T-iPS-T cells; 10 nM): 24672 ± 10675 **
- Number of CD45RA+CCR7+ cells (T-iPS-T cells; 30 nM): 7186 ± 4180 *
- Cell number (T-iPS-T cells; 30 nM): 30885 ± 12249 **
- Number of CD45RA+CCR7+ cells (T-iPS-T cells; 100 nM): 10224 ± 3801 **
- Cell number (T-iPS-T cells; 100 nM): 48026 ± 6597 **
- Number of CD45RA+CCR7+ cells (T-iPS-T cells; 300 nM): 12034 ± 6515 *
- Cell number (T-iPS-T cells; 300 nM): 54888 ± 5691 **
- number of CD45RA(+)CCR7(+) cells, rank among the 266 compounds (T-iPS-T cells; 1 μM, FIG. 7): highest number of CD45RA(+)CCR7(+) cells
- proliferation of T-iPS-T cells (PI-negative cells and CD45RA(+)CCR7(+) cells) vs DMSO (T-iPS-T cells; 1 μM, FIG. 12): significant proliferation effect
- Number of CD45RA+CCR7+ cells (T-iPS-T cells; 1 μM): 12957 ± 9483
- Cell number (T-iPS-T cells; 1 μM): 43432 ± 23926
- Number of CD45RA+CCR7+ cells (T-iPS-T cells; 3 μM): 13552 ± 10355
- Cell number (T-iPS-T cells; 3 μM): 43656 ± 29882
- Number of CD45RA+CCR7+ cells (T-iPS-T cells; 10 μM): 5650 ± 8552
- Cell number (T-iPS-T cells; 10 μM): 20559 ± 34130
- number of CD45RA(+)CCR7(+) cells compared with DMSO (T-iPS-T cells; each compound 1 μM, FIG. 13): significant cell proliferation
- number of viable cells compared with MilliQ water (stem cell memory T cells): significant enhancement of cell proliferation
- number of FoxP3-positive cells compared with MilliQ water [1]: increase in the number of FoxP3-positive cells
